From the kinase profiling compilation of Christmann-Franck et al. (2016)

What was measured:
[1] = target: ALK (human) (UniProt Q9UM73); assay: Caliper, Mobility shift assay off-chip
[2] = target: CDK5 (human) (UniProt Q00535); assay: Caliper, Mobility shift assay off-chip
[3] = target: CSNK1G3 (human) (UniProt Q9Y6M4); assay: Caliper, Mobility shift assay off-chip
[4] = target: EPHA6 (human) (UniProt Q9UF33); assay: Caliper, Mobility shift assay off-chip
[5] = target: FER (human) (UniProt P16591); assay: Caliper, Mobility shift assay off-chip
[6] = target: MARK3 (human) (UniProt P27448); assay: Caliper, Mobility shift assay off-chip
[7] = target: PGK1 (human) (UniProt P00558); assay: Caliper, Mobility shift assay off-chip
[8] = target: PRKD1 (human) (UniProt Q15139); assay: Caliper, Mobility shift assay off-chip
[9] = target: RPS6KA3 KD1 KD2 (human) (UniProt P51812); assay: Caliper, Mobility shift assay off-chip
[10] = target: TNK2 (human) (UniProt Q07912); assay: Caliper, Mobility shift assay off-chip
[11] = target: BMPR1A (human) (UniProt P36894); assay: ELISA
[12] = target: BRAF (human) (UniProt P15056); assay: ELISA
[13] = target: LIMK1 (human) (UniProt P53667); assay: ELISA
[14] = target: MAP2K1 (human) (UniProt Q02750); assay: ELISA
[15] = target: MAP2K2 (human) (UniProt P36507); assay: ELISA
[16] = target: MAP2K3 (human) (UniProt P46734); assay: ELISA
[17] = target: MAP2K5 (human) (UniProt Q13163); assay: ELISA
[18] = target: MAP2K6 (human) (UniProt P52564); assay: ELISA
[19] = target: MAP2K7 (human) (UniProt O14733); assay: ELISA
[20] = target: MAP3K1 (human) (UniProt Q13233); assay: ELISA
[21] = target: MAP3K10 (human) (UniProt Q02779); assay: ELISA
[22] = target: MAP3K11 (human) (UniProt Q16584); assay: ELISA
[23] = target: MAP3K12 (human) (UniProt Q12852); assay: ELISA
[24] = target: MAP3K2 (human) (UniProt Q9Y2U5); assay: ELISA
[25] = target: MAP3K3 (human) (UniProt Q99759); assay: ELISA
[26] = target: MAP3K4 (human) (UniProt Q9Y6R4); assay: ELISA
[27] = target: MAP3K5 (human) (UniProt Q99683); assay: ELISA
[28] = target: MAP3K8 (human) (UniProt P41279); assay: ELISA
[29] = target: MAP3K9 (human) (UniProt P80192); assay: ELISA
[30] = target: MOS (human) (UniProt P00540); assay: ELISA
[31] = target: PLK4 (human) (UniProt O00444); assay: ELISA
[32] = target: RAF1 (human) (UniProt P04049); assay: ELISA
[33] = target: STK11 (human) (UniProt Q15831); assay: ELISA
[34] = target: TTK (human) (UniProt P33981); assay: ELISA
[35] = target: WEE1 (human) (UniProt P30291); assay: ELISA

Sequence of TNK2 (human) (Q07912 whole entry, looked up): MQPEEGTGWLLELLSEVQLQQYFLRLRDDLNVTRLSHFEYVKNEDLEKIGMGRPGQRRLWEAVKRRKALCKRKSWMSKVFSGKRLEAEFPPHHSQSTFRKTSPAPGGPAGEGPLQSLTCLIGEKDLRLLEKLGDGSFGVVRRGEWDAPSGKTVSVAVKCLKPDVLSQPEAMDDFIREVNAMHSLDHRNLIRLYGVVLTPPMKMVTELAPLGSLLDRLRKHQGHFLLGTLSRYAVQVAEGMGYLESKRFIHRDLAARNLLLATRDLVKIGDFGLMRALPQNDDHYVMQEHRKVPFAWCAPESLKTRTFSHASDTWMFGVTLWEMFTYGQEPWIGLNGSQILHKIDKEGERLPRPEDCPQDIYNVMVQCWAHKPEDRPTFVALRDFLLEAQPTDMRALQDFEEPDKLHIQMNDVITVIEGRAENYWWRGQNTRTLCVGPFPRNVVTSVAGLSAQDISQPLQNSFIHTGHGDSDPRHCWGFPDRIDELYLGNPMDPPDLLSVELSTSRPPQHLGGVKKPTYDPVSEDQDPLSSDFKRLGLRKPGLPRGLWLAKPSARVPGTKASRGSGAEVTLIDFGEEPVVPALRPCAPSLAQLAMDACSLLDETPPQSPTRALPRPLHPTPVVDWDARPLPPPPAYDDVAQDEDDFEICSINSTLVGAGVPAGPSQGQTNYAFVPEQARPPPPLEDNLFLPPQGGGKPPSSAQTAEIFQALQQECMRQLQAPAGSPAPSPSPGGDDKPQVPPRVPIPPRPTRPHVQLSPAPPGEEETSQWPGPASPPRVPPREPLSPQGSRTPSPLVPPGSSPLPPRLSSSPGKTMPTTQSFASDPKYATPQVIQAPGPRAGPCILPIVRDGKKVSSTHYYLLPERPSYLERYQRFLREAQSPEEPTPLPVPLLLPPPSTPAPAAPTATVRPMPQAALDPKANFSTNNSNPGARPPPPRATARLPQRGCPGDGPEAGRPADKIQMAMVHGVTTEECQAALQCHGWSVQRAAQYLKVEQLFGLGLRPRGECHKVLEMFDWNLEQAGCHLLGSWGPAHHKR
Sequence of PRKD1 (human) (Q15139 whole entry, looked up): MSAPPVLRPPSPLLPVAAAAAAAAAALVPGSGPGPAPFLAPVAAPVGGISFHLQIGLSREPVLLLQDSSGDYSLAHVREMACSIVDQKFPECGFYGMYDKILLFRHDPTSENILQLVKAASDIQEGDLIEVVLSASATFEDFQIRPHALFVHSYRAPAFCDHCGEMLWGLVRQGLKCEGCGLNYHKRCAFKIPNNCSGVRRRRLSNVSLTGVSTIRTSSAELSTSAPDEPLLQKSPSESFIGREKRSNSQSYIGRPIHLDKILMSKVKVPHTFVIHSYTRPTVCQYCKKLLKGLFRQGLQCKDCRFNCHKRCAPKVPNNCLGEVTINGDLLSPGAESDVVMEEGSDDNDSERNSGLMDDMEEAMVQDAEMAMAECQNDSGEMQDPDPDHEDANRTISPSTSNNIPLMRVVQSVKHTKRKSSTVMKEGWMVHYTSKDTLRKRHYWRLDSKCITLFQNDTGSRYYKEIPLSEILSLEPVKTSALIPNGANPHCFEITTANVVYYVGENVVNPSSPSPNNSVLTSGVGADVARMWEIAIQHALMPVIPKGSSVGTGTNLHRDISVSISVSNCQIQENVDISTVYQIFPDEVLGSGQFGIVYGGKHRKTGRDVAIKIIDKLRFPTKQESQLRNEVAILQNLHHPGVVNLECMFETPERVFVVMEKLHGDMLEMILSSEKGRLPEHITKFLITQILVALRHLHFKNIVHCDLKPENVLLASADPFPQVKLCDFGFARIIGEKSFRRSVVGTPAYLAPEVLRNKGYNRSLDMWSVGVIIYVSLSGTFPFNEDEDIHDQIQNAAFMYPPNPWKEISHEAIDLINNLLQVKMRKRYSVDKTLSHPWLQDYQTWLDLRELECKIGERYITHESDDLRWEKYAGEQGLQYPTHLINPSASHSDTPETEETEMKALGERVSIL
Sequence of LIMK1 (human) (P53667 whole entry, looked up): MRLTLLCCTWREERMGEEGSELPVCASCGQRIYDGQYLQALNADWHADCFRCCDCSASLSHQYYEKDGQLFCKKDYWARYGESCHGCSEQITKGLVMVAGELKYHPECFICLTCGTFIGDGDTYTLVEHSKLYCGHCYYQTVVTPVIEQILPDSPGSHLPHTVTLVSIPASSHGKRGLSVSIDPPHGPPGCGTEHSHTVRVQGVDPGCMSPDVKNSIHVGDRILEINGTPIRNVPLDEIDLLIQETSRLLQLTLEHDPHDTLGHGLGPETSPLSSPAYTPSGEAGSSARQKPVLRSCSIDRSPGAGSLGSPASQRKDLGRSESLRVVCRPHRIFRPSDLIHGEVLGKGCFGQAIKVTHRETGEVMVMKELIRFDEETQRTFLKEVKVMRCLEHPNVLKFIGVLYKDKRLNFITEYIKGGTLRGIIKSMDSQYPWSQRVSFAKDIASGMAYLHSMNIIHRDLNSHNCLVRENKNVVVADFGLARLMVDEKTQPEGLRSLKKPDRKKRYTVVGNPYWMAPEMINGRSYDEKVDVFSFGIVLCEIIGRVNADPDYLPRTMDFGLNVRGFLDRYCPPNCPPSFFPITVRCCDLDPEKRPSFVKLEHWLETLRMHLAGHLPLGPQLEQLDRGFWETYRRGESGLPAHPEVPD
Sequence of MAP2K6 (human) (P52564 whole entry, looked up): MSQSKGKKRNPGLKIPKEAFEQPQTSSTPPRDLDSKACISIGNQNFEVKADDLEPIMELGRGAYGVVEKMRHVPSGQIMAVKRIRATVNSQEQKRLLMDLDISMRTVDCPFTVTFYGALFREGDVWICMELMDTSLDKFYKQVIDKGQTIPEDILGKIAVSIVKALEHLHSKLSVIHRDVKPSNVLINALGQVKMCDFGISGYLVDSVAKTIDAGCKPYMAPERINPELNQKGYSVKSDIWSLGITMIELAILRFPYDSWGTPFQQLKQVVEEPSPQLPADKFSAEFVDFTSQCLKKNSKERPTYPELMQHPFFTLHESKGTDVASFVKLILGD
Sequence of TTK (human) (P33981 whole entry, looked up): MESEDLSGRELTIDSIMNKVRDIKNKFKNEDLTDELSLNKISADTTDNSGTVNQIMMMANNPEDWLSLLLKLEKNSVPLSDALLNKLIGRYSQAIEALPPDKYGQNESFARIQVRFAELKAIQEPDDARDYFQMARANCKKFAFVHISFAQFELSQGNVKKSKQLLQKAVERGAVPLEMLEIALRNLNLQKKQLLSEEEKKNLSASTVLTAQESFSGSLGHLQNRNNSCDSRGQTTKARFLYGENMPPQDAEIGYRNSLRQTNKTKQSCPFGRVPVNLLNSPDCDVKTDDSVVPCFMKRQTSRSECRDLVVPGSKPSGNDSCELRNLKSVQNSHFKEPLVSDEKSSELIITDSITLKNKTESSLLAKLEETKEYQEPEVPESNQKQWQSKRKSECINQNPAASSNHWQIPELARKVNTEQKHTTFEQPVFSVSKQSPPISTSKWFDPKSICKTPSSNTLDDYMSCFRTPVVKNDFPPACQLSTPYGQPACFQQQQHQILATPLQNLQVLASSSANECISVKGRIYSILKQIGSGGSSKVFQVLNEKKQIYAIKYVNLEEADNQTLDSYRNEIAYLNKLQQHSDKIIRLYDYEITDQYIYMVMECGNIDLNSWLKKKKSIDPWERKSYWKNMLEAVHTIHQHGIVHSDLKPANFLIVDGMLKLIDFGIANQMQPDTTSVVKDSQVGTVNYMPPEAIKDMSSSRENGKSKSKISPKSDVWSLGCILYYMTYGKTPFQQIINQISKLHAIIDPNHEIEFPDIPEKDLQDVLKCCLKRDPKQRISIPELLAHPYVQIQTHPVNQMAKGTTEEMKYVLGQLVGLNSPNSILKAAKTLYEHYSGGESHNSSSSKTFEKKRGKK
Sequence of FER (human) (P16591 whole entry, looked up): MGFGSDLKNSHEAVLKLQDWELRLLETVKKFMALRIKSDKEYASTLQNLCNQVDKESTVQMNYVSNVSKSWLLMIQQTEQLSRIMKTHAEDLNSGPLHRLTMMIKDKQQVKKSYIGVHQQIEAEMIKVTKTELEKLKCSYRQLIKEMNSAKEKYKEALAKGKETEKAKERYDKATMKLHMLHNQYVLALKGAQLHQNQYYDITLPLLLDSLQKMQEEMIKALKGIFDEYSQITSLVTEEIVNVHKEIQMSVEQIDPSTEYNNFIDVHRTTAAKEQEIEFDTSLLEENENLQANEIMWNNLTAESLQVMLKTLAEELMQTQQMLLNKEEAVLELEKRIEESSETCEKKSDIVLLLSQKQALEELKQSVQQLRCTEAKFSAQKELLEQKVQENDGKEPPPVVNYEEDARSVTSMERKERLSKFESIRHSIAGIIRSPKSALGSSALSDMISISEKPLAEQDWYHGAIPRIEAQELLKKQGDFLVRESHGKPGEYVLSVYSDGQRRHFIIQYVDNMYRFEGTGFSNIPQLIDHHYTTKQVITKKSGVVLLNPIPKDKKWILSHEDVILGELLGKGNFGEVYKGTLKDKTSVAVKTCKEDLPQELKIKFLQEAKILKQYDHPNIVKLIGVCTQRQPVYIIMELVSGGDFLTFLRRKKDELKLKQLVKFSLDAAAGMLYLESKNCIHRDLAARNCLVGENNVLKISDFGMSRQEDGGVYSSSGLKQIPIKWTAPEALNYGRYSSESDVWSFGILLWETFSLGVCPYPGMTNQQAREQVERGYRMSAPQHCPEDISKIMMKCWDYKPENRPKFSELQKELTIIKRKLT
Sequence of MAP2K2 (human) (P36507 whole entry, looked up): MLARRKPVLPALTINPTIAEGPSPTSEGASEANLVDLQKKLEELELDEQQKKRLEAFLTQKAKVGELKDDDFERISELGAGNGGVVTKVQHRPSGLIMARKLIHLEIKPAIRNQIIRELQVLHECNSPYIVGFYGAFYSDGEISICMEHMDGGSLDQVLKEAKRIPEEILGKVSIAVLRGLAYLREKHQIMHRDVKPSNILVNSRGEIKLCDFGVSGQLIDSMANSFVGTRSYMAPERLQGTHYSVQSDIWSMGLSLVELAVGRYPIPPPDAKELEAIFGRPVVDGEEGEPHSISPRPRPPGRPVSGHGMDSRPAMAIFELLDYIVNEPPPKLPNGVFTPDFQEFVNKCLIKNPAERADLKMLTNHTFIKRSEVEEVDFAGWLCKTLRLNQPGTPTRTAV

COc1cc2c(Oc3ccc4[nH]c(C)cc4c3F)ncnc2cc1OCCCN1CCCC1
inhibition ([1]; compound 0.02 µM): 5.8%
inhibition ([1]; compound 0.2 µM): 10.6%
inhibition ([2]; compound 0.02 µM): 0.8%
inhibition ([2]; compound 0.2 µM): -4.2%
inhibition ([3]; compound 0.02 µM): 2.8%
inhibition ([3]; compound 0.2 µM): -1.8%
inhibition ([4]; compound 0.02 µM): 37.1%
inhibition ([4]; compound 0.2 µM): 95.9%
inhibition ([5]; compound 0.02 µM): 8.7%
inhibition ([5]; compound 0.2 µM): 11.2%
inhibition ([6]; compound 0.02 µM): -1.8%
inhibition ([6]; compound 0.2 µM): -3.4%
inhibition ([7]; compound 0.02 µM): -1.4%
inhibition ([7]; compound 0.2 µM): -6.5%
inhibition ([8]; compound 0.02 µM): -1.3%
inhibition ([8]; compound 0.2 µM): -2.2%
inhibition ([9]; compound 0.02 µM): 0.1%
inhibition ([9]; compound 0.2 µM): -1.8%
inhibition ([10]; compound 0.02 µM): -6.7%
inhibition ([10]; compound 0.2 µM): -5.4%
inhibition ([11]; compound 0.02 µM): 8.3%
inhibition ([11]; compound 0.2 µM): -7.9%
inhibition ([12]; compound 0.2 µM): 2%
inhibition ([13]; compound 0.02 µM): -7.3%
inhibition ([13]; compound 0.2 µM): -7.8%
inhibition ([14]; compound 0.02 µM): -0.6%
inhibition ([14]; compound 0.2 µM): -2.4%
inhibition ([15]; compound 0.02 µM): -4.9%
inhibition ([15]; compound 0.2 µM): -23%
inhibition ([16]; compound 0.02 µM): -7.4%
inhibition ([16]; compound 0.2 µM): -2.9%
inhibition ([17]; compound 0.2 µM): -8.2%
inhibition ([18]; compound 0.02 µM): 2.8%
inhibition ([18]; compound 0.2 µM): -5%
inhibition ([19]; compound 0.02 µM): -6.9%
inhibition ([19]; compound 0.2 µM): -3.5%
inhibition ([20]; compound 0.02 µM): 1.2%
inhibition ([20]; compound 0.2 µM): -1%
inhibition ([21]; compound 0.02 µM): 3.6%
inhibition ([21]; compound 0.2 µM): 6%
inhibition ([22]; compound 0.02 µM): -1.7%
inhibition ([22]; compound 0.2 µM): -0.3%
inhibition ([23]; compound 0.02 µM): 8.9%
inhibition ([23]; compound 0.2 µM): 10.3%
inhibition ([24]; compound 0.02 µM): 1.9%
inhibition ([24]; compound 0.2 µM): 4.4%
inhibition ([25]; compound 0.02 µM): 1.2%
inhibition ([25]; compound 0.2 µM): 2.9%
inhibition ([26]; compound 0.02 µM): -1.7%
inhibition ([26]; compound 0.2 µM): -6.3%
inhibition ([27]; compound 0.02 µM): 8.7%
inhibition ([27]; compound 0.2 µM): 4%
inhibition ([28]; compound 0.02 µM): -3.2%
inhibition ([28]; compound 0.2 µM): -1%
inhibition ([29]; compound 0.02 µM): 4.9%
inhibition ([29]; compound 0.2 µM): 10.5%
inhibition ([30]; compound 0.02 µM): 4.2%
inhibition ([30]; compound 0.2 µM): 3.7%
inhibition ([31]; compound 0.02 µM): 7.6%
inhibition ([31]; compound 0.2 µM): 8.4%
inhibition ([32]; compound 0.02 µM): 3.1%
inhibition ([32]; compound 0.2 µM): -1.7%
inhibition ([33]; compound 0.02 µM): 0.9%
inhibition ([33]; compound 0.2 µM): 19%
inhibition ([34]; compound 0.02 µM): -4%
inhibition ([34]; compound 0.2 µM): -2%
inhibition ([35]; compound 0.02 µM): -5.4%
inhibition ([35]; compound 0.2 µM): 0.5%

CCN(CC)CCNC(=O)c1c(C)[nH]c(/C=C2\C(=O)Nc3ccc(F)cc32)c1C
inhibition ([1]; compound 0.2 µM): 82.2%
inhibition ([1]; compound 4.0 µM): 102%
inhibition ([4]; compound 0.2 µM): 43.4%
inhibition ([4]; compound 4.0 µM): 92.7%
inhibition ([5]; compound 0.2 µM): 78.8%
inhibition ([5]; compound 4.0 µM): 102%
inhibition ([6]; compound 0.2 µM): 77.4%
inhibition ([6]; compound 4.0 µM): 99%
inhibition ([7]; compound 0.2 µM): 12.5%
inhibition ([7]; compound 4.0 µM): 74.1%
inhibition ([8]; compound 0.2 µM): 73.6%
inhibition ([8]; compound 4.0 µM): 99%
inhibition ([9]; compound 0.2 µM): 61.7%
inhibition ([10]; compound 0.2 µM): 13.6%
inhibition ([10]; compound 4.0 µM): 76.8%
inhibition ([11]; compound 0.2 µM): -3.8%
inhibition ([11]; compound 4.0 µM): -7.3%
inhibition ([12]; compound 0.2 µM): -51%
inhibition ([12]; compound 4.0 µM): -60.8%
inhibition ([13]; compound 0.2 µM): -0.7%
inhibition ([13]; compound 4.0 µM): 31.7%
inhibition ([14]; compound 0.2 µM): 73.2%
inhibition ([15]; compound 0.2 µM): 70.1%
inhibition ([15]; compound 4.0 µM): 99%
inhibition ([16]; compound 0.2 µM): -2%
inhibition ([17]; compound 0.2 µM): 32.7%
inhibition ([17]; compound 4.0 µM): 91.8%
inhibition ([18]; compound 0.2 µM): 21.1%
inhibition ([18]; compound 4.0 µM): 87.3%
inhibition ([19]; compound 0.2 µM): 2.2%
inhibition ([19]; compound 4.0 µM): -3.6%
inhibition ([20]; compound 0.2 µM): 15.9%
inhibition ([20]; compound 4.0 µM): -29.8%
inhibition ([21]; compound 0.2 µM): 1.2%
inhibition ([21]; compound 4.0 µM): 11%
inhibition ([22]; compound 0.2 µM): 30.9%
inhibition ([22]; compound 4.0 µM): 89.4%
inhibition ([23]; compound 0.2 µM): 59.5%
inhibition ([23]; compound 4.0 µM): 96.5%
inhibition ([24]; compound 0.2 µM): 52.1%
inhibition ([24]; compound 4.0 µM): 95.7%
inhibition ([25]; compound 0.2 µM): 56.3%
inhibition ([25]; compound 4.0 µM): 95.5%
inhibition ([26]; compound 0.2 µM): -4.9%
inhibition ([26]; compound 4.0 µM): 17.5%
inhibition ([27]; compound 0.2 µM): -0.6%
inhibition ([27]; compound 4.0 µM): 60.6%
inhibition ([28]; compound 0.2 µM): -5.3%
inhibition ([28]; compound 4.0 µM): -9.2%
inhibition ([30]; compound 0.2 µM): 2.5%
inhibition ([30]; compound 4.0 µM): 29.9%
inhibition ([31]; compound 0.2 µM): 30.3%
inhibition ([31]; compound 4.0 µM): 82.7%
inhibition ([32]; compound 0.2 µM): -61.4%
inhibition ([32]; compound 4.0 µM): -88.1%
inhibition ([33]; compound 0.2 µM): 4.3%
inhibition ([33]; compound 4.0 µM): 28.1%
inhibition ([34]; compound 0.2 µM): 11.5%
inhibition ([34]; compound 4.0 µM): 89.7%
inhibition ([35]; compound 0.2 µM): 10%
inhibition ([35]; compound 4.0 µM): 65.3%
